Results reported in patent publication EP2386565A2, “Compounds and methods to inhibit or augment an inflammatory response” (Cambridge Enterprise Ltd., priority 1999, dated 2000).
Positions of bridges follow the written chain, without caps; N, C: chain ends. Non-standard residues stand in square brackets, D forms with d. Residues, ends and D or L forms follow the SMILES beside them.

What was measured:
[1] = 8.8 mg i.v. bolus
B cells = assay type: cell-based
D2s dopamine receptors = biological target: T1, D2s dopamine receptors (Homo sapiens, UniProt P14416); experiment: Competition of 3H-spiperone binding to membranes; conditions: 100 µM highest concentration tested
T1 construct: purchased RBI/Sigma D-179; host or cells: membranes
Protocol: For dopamine receptor binding, membranes (D-179, RBI/Sigma) are diluted into binding buffer (75 mM Tris pH 7.4, 12.5 mM MgCl2 and 2 mM EDTA). For example, 10 µl of membranes are diluted in 500 µl of binding buffer (i.e., 1:50 dilution), which is aliquoted into labelled tubes. Cold competitor or test competitor is added, (e.g., 5 µl of 100x stock solution; 5 µl of 1 mM haloperidol solution (H-100, RBI/Sigma in DMSO). Radioligand is then added (^3H-Spiperone, TRK 818, Amersham, 250 µCi in 250 µl, 10.5 µM at 95 Ci/mmol). For competition studies, 0.5 nM is used. A 100x stock (i.e., 50 nM) is made by diluting the commercial stock 1:210 in binding buffer, and 5 µl is added to every tube. Control tubes have radioligand but no membranes. The mixtures are vortexed, then spun very briefly. The mixtures are then incubated for 1 hour at 27°C in a water bath. The mixture is filtered through GF/C filters over a vacuum. Each filter is pre-soaked in polyethyleneimine (0.3% in water; add 1 ml of 10% stock (P-261; RBI/Sigma) to 33 ml of MilliQ water). The tubes are washed with 2-3 ml of wash buffer (50 mM Tris pH 7.4) and the wash filtered. The filters are then rinsed with 3 × 5 ml of wash buffer, air dried, placed in a scintillation vial and 4.5 ml of scintillant added. The activity on the filter is then determined.

[2] = test system: IL8 induced human monocyte migration; experiment: Migration of freshly prepared peripheral blood monocytes, IL8; assay type: cell-based
Protocol: Agents may also be screened in a chemotactic assay which employs human neutrophils, eosinophils, mast cells, basophils, platelets, lymphocytes or monocytes. For monocytes, 9 mls of fresh blood are transferred to a tube containing 1 ml of 3.8% sodium citrate, and left at room temperature for 15 minutes. Five mls of this anti-coagulated blood are carefully layered over 3.5 ml Polymorphprep® (Nycomed Pharma, Oslo), and centrifuged at 500 g for 35 minutes per the manufacturer's instructions. The top band at the sample/medium interface contains monocytes. The monocytes are carefully removed with a glass pipette, and reconstituted to the original volume (5 ml). The cells are washed with PBS plus 10% fetal calf serum, and centrifuged at 400 g for 10 minutes. The washing step is repeated three times before the cells are counted. Cells are resuspended at 1 × 10^7 cells/ml in RPMI-1640 + 10% fetal calf serum (FCS). The monocytes are cultured for two days at 37°C in a humidified atmosphere of 5% CO2-
On day 2, the cells are counted, spun down, and reconstituted to 1 × 10^7 cells/ml in Gey's balanced salt solution + 1 mg/ml bovine serum albumin (BSA). […]

T1 sequence (P14416 1-414 isoform P14416-2): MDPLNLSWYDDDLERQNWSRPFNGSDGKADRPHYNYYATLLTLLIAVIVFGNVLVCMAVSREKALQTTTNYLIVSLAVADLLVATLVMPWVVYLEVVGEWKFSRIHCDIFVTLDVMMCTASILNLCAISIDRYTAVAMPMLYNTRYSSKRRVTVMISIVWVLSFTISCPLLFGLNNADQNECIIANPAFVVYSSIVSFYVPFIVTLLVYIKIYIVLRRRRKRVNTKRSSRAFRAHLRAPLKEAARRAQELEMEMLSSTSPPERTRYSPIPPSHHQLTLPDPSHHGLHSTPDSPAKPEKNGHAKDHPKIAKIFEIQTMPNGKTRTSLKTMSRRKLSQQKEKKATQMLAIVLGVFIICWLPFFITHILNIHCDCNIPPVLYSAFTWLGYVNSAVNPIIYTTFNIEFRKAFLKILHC

SMILES	time until serum concentrations decline below LLOQ (in words) [1]	proliferation of B cells to tetanus toxoid (in words) (B cells)	ED50 for competition of spiperone binding to short splice variant D2 dopamine receptor (D2s dopamine receptors) [µM]	% inhibition at 100 µM versus IL8 [2]
CC[C@@H](C)[C@H]1NC(=O)[C@@H](CCC(N)=O)NC(=O)[C@H](N)CSSC[C@H](C(N)=O)NC(=O)[C@@H](CC(C)C)NC(=O)[C@@H](CC(=O)O)NC(=O)[C@H]2CCCN2C(=O)[C@@H](CCCCN)NC(=O)[C@@H](CCC(N)=O)NC(=O)[C@@H](CCCCN)NC(=O)[C@@H](Cc2c[nH]c3ccccc23)NC1=O (H-[dC][dQ][dI][dW][dK][dQ][dK][dP][dD][dL][dC]-NH2; disulfide 1-11)	within four hours	no effect	>100	
CC[C@H](C)[C@H](NC(=O)[C@H](C)NC(=O)[C@H](CC(=O)O)NC(=O)[C@@H]1CCCN1C(=O)[C@H](CCC(N)=O)NC(=O)[C@H](C)N)C(=O)N[C@@H](CC(N)=O)C(=O)N[C@@H](C)C(=O)N1CCC[C@H]1C(=O)N[C@H](C(=O)N[C@H](C(=O)N[C@@H](CS)C(=O)N[C@@H](CS)C(=O)O)[C@@H](C)O)C(C)C [Peptide 1] (H-AQPDAINAPVTCC-OH; N-terminus and C-terminus assumed)				n.s.
